Like-named read-outs stand apart in the source and are kept apart here.
Legend:
[1] = test system: human embryonic kidney cells (HEK-293); experiment: MTT cell viability assay, normal HEK-293 cells; assay type: cell-based; details: HEK293, 48 h, read-out: half inhibitory concentration (IC50), HEK-293
Procedure: (§1) The human embryonic kidney cells (HEK-293), human non-small-cell lung cancer (A549), human breast cancer cells (MCF-7), and human prostate cancer (PC-3M) cells used in this study were obtained from the Beijing BNCC Biotechnology Research Institute (Beijing, China), and human gastric cancer cells (HGC-27) were obtained from Dalian Meilun Biotechnology Co., Ltd. (Dalian, China).
(§2) The cell lines used in this study (A549, MCF-7, PC-3M, HGC-27, HEK-293) were removed from the CO2 incubator and seeded into 96-well plates at a density of 5 × 10^4/mL. Following a 24-h incubation period under standard CO2 conditions, we added […] of sample solutions at various concentrations ([…], 12.5, 25, 50, 100 μmol/L) to each well. Each concentration was tested in six replicates. The control group received 0.1% DMSO in serum-free medium (SFM). After 48 h of the drug effect, 10 µL of MTT solution was added to each well under light-avoidance conditions, and incubation was continued under light-avoidance conditions for 4 h; the supernatant was discarded, and 150 μL of DMSO was added to dissolve the resulting formazan crystals. After 10 min of shaking to ensure the complete dissolution and uniform color development of purple crystals, the absorbance (OD) was measured at 490 nm using a microplate reader.
(§3) The inhibition rate was calculated as: Inhibition rate (%) = [(OD value of control group-OD value of administered group)/(OD value of control group-OD value of zeroing group)] × 100%, where OD value of zeroing group represents the zeroing group.
(§4) The IC50 values of the drugs were calculated by fitting using GraphPad Prism v.6.01 (GraphPad Software, San Diego, CA, USA), and it was used as a criterion for selecting the appropriate drug concentration for subsequent experiments.

[2] = test system: human gastric cancer cells (HGC-27); experiment: MTT cell viability assay, HGC-27; assay type: cell-based; details: 48 h, HGC-27 cells, read-out: half inhibitory concentration (IC50), HGC-27
Procedure: as §1, §2, §3, §4

[3] = test system: human non-small-cell lung cancer (A549); experiment: MTT cell viability assay, A549; assay type: cell-based; details: A549 cells; for IC50: Homo sapiens, MTT, 48 h, read-out: half inhibitory concentration (IC50), A549; for increase in cytostatic effect relative to formononetin: from IC50 values
Procedure: The human embryonic kidney cells (HEK-293), human non-small-cell lung cancer (A549), human breast cancer cells (MCF-7), and human prostate cancer (PC-3M) cells used in this study were obtained from the Beijing BNCC Biotechnology Research Institute (Beijing, China), and human gastric cancer cells (HGC-27) were obtained from Dalian Meilun Biotechnology Co., Ltd. (Dalian, China). […] Each concentration was tested in six replicates. The control group received 0.1% DMSO in serum-free medium (SFM). […] The inhibition rate was calculated as: Inhibition rate (%) = [(OD value of control group-OD value of administered group)/(OD value of control group-OD value of zeroing group)] × 100%, where OD value of zeroing group represents the zeroing group.

[4] = test system: human prostate cancer (PC-3M) cells; experiment: MTT cell viability assay, PC-3M; assay type: cell-based; details: 48 h, read-out: half inhibitory concentration (IC50), PC-3M
Procedure: as §1, §2, §3, §4

[5] = test system: human breast cancer cells (MCF-7); experiment: MTT cell viability assay, MCF-7; assay type: cell-based
Procedure: as §1, §2, §3, §4

[6] = Solubility observed during the experimental process; assay type: physicochemical; details: room temperature, formononetin in water, methanol, ethanol, acetone, tetrahydrofuran, ethyl acetate, dichloromethane, chloroform, derivatives in acetate
Procedure: Therefore, using procedures reported in the previous studies, we employed a molar ratio of 1:3 between the intermediate and triphenylphosphine. […] For the synthesis of fatty acid esters, dichloromethane was employed as the reaction solvent, and a 1.5-fold molar excess of the corresponding acid was added. The reaction was conducted over a 1–4 h period, which enabled the complete conversion of formononetin and maximum yield. […] The introduction of triphenylphosphine […].

[7] = MCF7, 48 h, MCF-7 cells, read-out: half inhibitory concentration (IC50), MCF-7
[8] = MCF7, MCF-7 cells, read-out: IC50 against MCF-7 cells

Structure (SMILES) | IC50 [1] [µM] | IC50 [2] [µM] | IC50 [3] [µM] | IC50 [4] [µM] | IC50 [5, 7] [µM] | increase in cytostatic effect relative to formononetin [3] [fold] | IC50 [5, 8] [µM] | solubility (observation) [6]
COc1ccc(-c2coc3cc(OC(=O)CCCCCBr)ccc3c2=O)cc1 [1a, 7-O-(6-bromohexanoyl)-formononetin] | 83.4 ± 8.61 | 83.3 ± 8.32 |  |  |  |  |  | 
COc1ccc(-c2coc3cc(OC(=O)CCCCCCBr)ccc3c2=O)cc1 [1b, 7-O-(7-bromoheptanoyl)-formononetin] | 70.7 ± 5.61 | 79.1 ± 5.65 |  |  |  |  |  | 
COc1ccc(-c2coc3cc(OC(=O)CCCCCCCBr)ccc3c2=O)cc1 [1c, 7-O-(8-bromooctanoyl)-formononetin] | 68 ± 5.33 | 31.4 ± 4.93 | > 100 |  |  |  |  | 
COc1ccc(-c2coc3cc(OC(=O)CCCCCCCCBr)ccc3c2=O)cc1 [1d, 7-O-(9-bromononanoi)-formononetin] | 74.4 ± 4.28 | 79.2 ± 9.27 | 86.2 ± 6.1 |  |  |  |  | 
COc1ccc(-c2coc3cc(OC(=O)CCCCCCCCCBr)ccc3c2=O)cc1 [1e, 7-O-(10-bromodecanoyl)-formononetin] | 95.1 ± 7.97 | 66.1 ± 7.33 | 65.4 ± 5.01 | 84 ± 11 |  |  |  | 
COc1ccc(-c2coc3cc(OC(=O)CCCCCCCCCCBr)ccc3c2=O)cc1 [1f, 7-O-(11-bromoundecanoyl)-formononetin] | 95.7 ± 8.09 | 55.6 ± 2.43 | 74.6 ± 11.4 |  |  |  |  | 
COc1ccc(-c2coc3cc(OC(=O)CCCCCCCCCCCBr)ccc3c2=O)cc1 [1g, 7-O-(12-bromododecanoyl)-formononetin] | 59.9 ± 7.79 | 95.5 ± 6.23 | 53.6 ± 5.15 | > 100 |  |  |  | 
COc1ccc(-c2coc3cc(OC(=O)CCCCC[P+](c4ccccc4)(c4ccccc4)c4ccccc4)ccc3c2=O)cc1 [2a, 7-O-(6-bromohexanoyl)-formononetin-triphenylphosphine coupling] | 44.8 ± 2.39 | 13.4 ± 2.77 | 28.8 ± 2.45 | 55.2 ± 4.4 | 72.8 ± 6.25 |  |  | 
COc1ccc(-c2coc3cc(OC(=O)CCCCCC[P+](c4ccccc4)(c4ccccc4)c4ccccc4)ccc3c2=O)cc1 [2b, 7-O-(7-bromoheptanoyl)-formononetin-triphenylphosphine coupling] | 46.2 ± 3.99 | 32.1 ± 5.96 | 42.2 ± 3.69 | 69.2 ± 3.98 | 46.5 ± 4.94 |  |  | 
COc1ccc(-c2coc3cc(OC(=O)CCCCCCC[P+](c4ccccc4)(c4ccccc4)c4ccccc4)ccc3c2=O)cc1 [2c, 7-O-(8-bromooctanoyl)-formononetin-triphenylphosphine coupling] | 77 ± 8.26 | 18.6 ± 1.6 | 12.2 ± 1.52 | 21.7 ± 1.25 | 42.6 ± 9.44 | ~7 |  | 
COc1ccc(-c2coc3cc(OC(=O)CCCCCCCC[P+](c4ccccc4)(c4ccccc4)c4ccccc4)ccc3c2=O)cc1 [2d, 7-O-(9-bromononanoyl)-formononetin-triphenylphosphine coupling] | 47 ± 8.41 | 29.1 ± 2.58 | 31.2 ± 4.4 | 67 ± 6.97 | 56.8 ± 4.04 |  |  | 
COc1ccc(-c2coc3cc(OC(=O)CCCCCCCCC[P+](c4ccccc4)(c4ccccc4)c4ccccc4)ccc3c2=O)cc1 [2e, 7-O-(10-bromodecanoyl)-formononetin-triphenylphosphine coupling] | 64 ± 3.47 | 39.2 ± 2.68 | 39 ± 1.65 | 97.9 ± 6.33 | 85.5 ± 4.99 |  |  | 
COc1ccc(-c2coc3cc(OC(=O)CCCCCCCCCC[P+](c4ccccc4)(c4ccccc4)c4ccccc4)ccc3c2=O)cc1 [2f, 7-O-(11-bromoundecanoyl)-formononetin-triphenylphosphine coupling] | 51.7 ± 5.48 | 30.4 ± 2.12 | 20.6 ± 1.21 | 27.9 ± 2.69 | 52.3 ± 6.85 | ~7 |  | 
COc1ccc(-c2coc3cc(OC(=O)CCCCCCCCCCC[P+](c4ccccc4)(c4ccccc4)c4ccccc4)ccc3c2=O)cc1 [2g, 7-O-(12-bromododecanoyl)-formononetin-triphenylphosphine coupling] | 59.6 ± 5.65 | 29.4 ± 2.52 | 23.6 ± 2.25 | 41.2 ± 4.4 | 46.6 ± 4.95 | ~7 |  | 
CCCCCC(=O)Oc1ccc2c(=O)c(-c3ccc(OC)cc3)coc2c1 [3a, 7-O-hexanoyl-formononetin] |  | 49.5 ± 3.35 |  | 62 ± 8.71 |  |  |  | 
CCCCCCC(=O)Oc1ccc2c(=O)c(-c3ccc(OC)cc3)coc2c1 [3b] |  | 65.4 ± 3.88 | 96.4 ± 7.37 |  |  |  |  | 
CCCCCCCC(=O)Oc1ccc2c(=O)c(-c3ccc(OC)cc3)coc2c1 [3c, 7-O-octanoyl-formononetin] |  | 60 ± 7.82 | 83 ± 5.89 |  |  |  |  | 
CCCCCCCCC(=O)Oc1ccc2c(=O)c(-c3ccc(OC)cc3)coc2c1 [3d, 7-O-nonanoyl-formononetin] | 78.3 ± 9.74 | 80.2 ± 4.8 | 78.1 ± 6.21 | 58.3 ± 5.36 |  |  |  | 
CCCCCCCCCC(=O)Oc1ccc2c(=O)c(-c3ccc(OC)cc3)coc2c1 [3e, 7-O-n-decanoyl-formononetin] |  | 48.6 ± 5.3 | 74 ± 11.9 |  |  |  |  | 
CCCCCCCCCCC(=O)Oc1ccc2c(=O)c(-c3ccc(OC)cc3)coc2c1 [3f, 7-O-undecanoyl-formononetin] | 75 ± 5.49 | 45.4 ± 5.24 | 70.1 ± 9.67 | 46.7 ± 9.24 | 85 ± 5.74 |  |  | 
CCCCCCCCCCCC(=O)Oc1ccc2c(=O)c(-c3ccc(OC)cc3)coc2c1 [3g, 7-O-dodecanoyl-formononetin] | 50.4 ± 6.13 |  | 66.9 ± 9.7 | 50.4 ± 5.78 | 67.8 ± 8.92 |  |  | 
O=c1[nH]cc(F)c(=O)[nH]1 [5-FU, 5-fluorouracil, reference compound] | > 100 | 36.2 ± 3.02 | 22.9 ± 3.54 | 48.1 ± 3.76 |  |  | > 100 | 
COc1cccc2c1C(=O)c1c(O)c3c(c(O)c1C2=O)C[C@@](O)(C(=O)CO)C[C@@H]3O[C@H]1C[C@H](N)[C@H](O)[C@H](C)O1 [DOX, doxorubicin, reference compound] |  | 5.97 ± 0.43 | 15.4 ± 1.06 | 0.168 ± 0.06 | 13.2 ± 0.43 |  |  | 
COc1ccc(-c2coc3cc(O)ccc3c2=O)cc1 [FMN, formononetin] | 39.6 ± 3.26 | 29.6 ± 1.17 | 83 ± 6.25 | 76.4 ± 6.47 |  |  | > 100 | almost no solubility

From paper PMC12154443, “Design, Synthesis, Anti-Tumor Activity and Molecular Docking Studies of Novel Triphenylphosphine-Containing Formononetin Derivatives” (International Journal of Molecular Sciences, 2025)
